Data from patent US20220386611A1, “NOVEL HETEROARYL-TRIAZOLE COMPOUNDS AS PESTICIDES” (Bayer Aktiengesellschaft, priority 2019, published 2022).

Experiments:
Assay type in all cases: in vivo
[1] = system: larvae of the banded cucumber beetle (Diabrotica balteata); experiment: Diabrotica balteata spray test; conditions: 168 h, 100 g/ha (=32 μg/well), after 7 days, wheat seeds, read-out: efficacy (seedlings grown like untreated, uninfected control)
Protocol: Diabrotica balteata—spray test
Solvent: 78.0 parts by weight of acetone
1.5 parts by weight of dimethylformamide
(§1) Emulsifier: alkylarylpolyglycol ether
(§2) To produce a suitable preparation of active compound, 1 part by weight of active compound is mixed with the stated amount of solvent, and the concentrate is diluted with water, containing an emulsifier concentration of 1000 ppm, to the desired concentration. Further test concentrations are prepared by dilution with emulsifier containing water.
Soaked wheat seeds (Triticum aestivum) are placed in a multiple well plate filled with agar and some water and are incubated for 1 day to germinate (5 seeds per well). The germinated wheat seeds are sprayed with a test solution containing the desired concentration of the active ingredient. Afterwards each unit is infected with 10-20 larvae of the banded cucumber beetle (Diabrotica balteata).
After 7 days efficacy in % is determined. 100% means all the seedlings have grown up like in the untreated, uninfected control; 0% means none of the seedlings have grown.

[2] = system: green peach aphid (Myzus persicae); experiment: Myzus persicae oral test; conditions: 120 h
Protocol: Solvent: 100 parts by weight acetone
To produce a suitable preparation of active compound, 1 part by weight of active compound is mixed with the stated amount of solvent, and the concentrate is diluted with water to the desired concentration. 50 μL compound solution is filled in microtiter plates and 150 μL IPL41 insect medium (33%+15% sugar) is added to obtain a total volume of 200 μL per well. Afterwards the plates are sealed with parafilm through which a mixed population of the green peach aphid (Myzus persicae) can suck on the compound preparation.
(§3) After 5 days mortality in % is determined. 100% means all aphids have been killed and 0% means none of the aphids have been killed.

[3] = system: green peach aphid (Myzus persicae); experiment: Myzus persicae spray test; conditions: foliar, 120 h, after 5 days, Chinese cabbage leaf disks
Protocol: Myzus persicae—spray test
(§4) Solvent: 78.0 parts by weight acetone • 1.5 parts by weight dimethylformamide
as §1
as §2, with “solvents” for “solvent,”, “and” for “and the concentrate”
Chinese cabbage (Brassica pekinensis) leaf disks infected with all instars of the green peach aphid (Myzus persicae), are sprayed with a preparation of the active ingredient of the desired concentration.
as §3

[4] = system: fall armyworm larvae (Spodoptera frugiperda); experiment: Spodoptera frugiperda spray test; conditions: in Zea mays, 168 h
Protocol: Spodoptera frukiperda—Spray Test
as §4, §1
as §2, with “solvents” for “solvent,”, “and” for “and the concentrate”
Maize (Zea mays) leaf sections are sprayed with a preparation of the active ingredient of the desired concentration. Once dry, the leaf sections are infested with fall armyworm larvae (Spodoptera frugiperda).
After 7 days mortality in % is determined. 100% means all caterpillars have been killed and 0% means none of the caterpillars have been killed.

[5] = system: Aedes aegypti strain MONHEIM; experiment: Aedes aegypti test (AEDSAE surface treatment & contact assay); conditions: 24 hours after contact, read-out: efficacy (mortality); for mortality at 20 mg/m2: surface concentration 20 mg/m^2, 30 minutes exposure
Protocol: Aedes Aegypti Test (AEDSAE Surface Treatment & Contact Assay)
(§5) Solvent: Aceton+2000 ppm rapeseed oil methyl ester (RME)
(§6) In order to produce a sufficient, active ingredient containing solution it is necessary to solve the test compound in the solvent-mix (acetone at 2 mg/ml/RME 2000 ppm). This solution is pipetted onto a glazed tile and after evaporation of the acetone, adult mosquitoes of the species Aedes aegypti strain MONHEIM are placed onto the dried surface. The exposure time is 30 minutes. Mortality in percent (%) is determined 24 hours after contact of the insects to the treated surface. 100% mortality means that all tested insects are dead, whereas 0% means that no insect died.

[6] = system: Anopheles funestus strain FUMOZ-R; experiment: Anopheles funestus test (ANPHFU surface treatment & contact assay); conditions: surface concentration 20 mg/m^2, 30 minutes exposure, 24 hours after contact, read-out: efficacy (mortality)
Protocol: Anopheles funestus Test (ANPHFU Surface Treatment & Contact Assay)
as §5
as §6, with “Anopheles funestus” for “Aedes aegypti”, “FUMOZ-R (Hunt et al., Med. Vet. Entomol. 2005 September; 19(3): 271-275)” for “MONHEIM”

[7] = system: Musca domestica strain WHO-N; experiment: Musca domestica test (MUSCDO surface treatment & contact assay); conditions: 24 hours after contact, read-out: efficacy (mortality); for mortality at 4 mg/m2: surface concentration 4 mg/m^2, 30 minutes exposure; for mortality at 20 mg/m2: surface concentration 20 mg/m^2, 30 minutes exposure
Protocol: Musca domestica Test (MUSCDO Surface Treatment & Contact Assay)
as §5
as §6, with “flies” for “mosquitoes”, “Musca domestica” for “Aedes aegypti”, “WHO-N” for “MONHEIM”

[8] = system: Rhipicephalus microplus larvae (strain Parkhurst, resistant against synthetic pyrethroids); experiment: Rhipicephalus (Boophilus) microplus in-vitro contact test, larval cattle tick; conditions: 5 μg/cm^2 (=500 g/ha), after 48 hours, read-out: efficacy (larvae dead or moribund)
Protocol: Rhipicephalus (Boophilus) Microplus—In-Vitro Contact Tests Larval Cattle Tick (Strain Parkhurst, Resistant Against Synthetic Pyrethroids)
(§7) 9 mg compound is solved in 1 mL acetone and diluted with acetone to the desired concentration. 250 μL of the test solution is filled in 25 mL glass test tubes and homogeneously distributed on the inner walls by rotation and tilting on a shaking device (2 h at 30 rpm). With a compound concentration of 900 ppm, an inner surface of 44.7 cm^2 and a homogeneous distribution, a dose of 5 μg/cm^2 is achieved.
After the solvent has evaporated, each test tube is filled with 20-50 cattle tick larvae (Rhipicephalus microplus), closed with a perforated lid and incubated in a horizontal position at 85% relative humidity and 27° C. in an incubator. After 48 hours efficacy is determined. The larvae are patted on the ground of the tubes and negative geotactic behaviour is recorded.
An efficacy of 100% means all larvae are dead or moribund; 0% means no larvae are dead or moribund.

[9] = system: adult engorged female ticks (Rhipicephalus microplus); experiment: Rhipicephalus (Boophilus) microplus injection test; conditions: 168 h, after 7 days, read-out: efficacy (infertile eggs); for pest or weed control at 0.004 mg: 4 μg/animal; for pest or weed control at 0.02 mg: 20 μg/animal
Protocol: Rhipicephalus (Boophilus) microplus—Injection Test
(§8) Solvent: dimethyl sulfoxide
To produce a suitable preparation of active compound, 10 mg of active compound are dissolved in 0.5 mL solvent, and the concentrate is diluted with solvent to the desired concentration.
Five adult engorged female ticks (Rhipicephalus microplus) are injected with 1 μL compound solution into the abdomen. The ticks are transferred into replica plates and incubated in a climate chamber.
After 7 days egg deposition of fertile eggs is monitored. Eggs where fertility is not visible are stored in a climate chamber till hatching after about 42 days. An efficacy of 100% means all eggs are infertile; 0% means all eggs are fertile.

[10] = system: adult unfed cat fleas (Ctenocephalides felis); experiment: Ctenocephalides felis oral test; conditions: 48 h
Protocol: Ctenocephalides felis—Oral Test
as §8
To produce a suitable preparation of active compound, 10 mg of active compound are dissolved in 0.5 ml solvent, and the concentrate is diluted with cattle blood to the desired concentration.
Approximately 20 adult unfed cat fleas (Ctenocephalides felis) are placed in flea chambers. The blood chamber, sealed with parafilm on the bottom, are filled with cattle blood supplied with compound solution and placed on the gauze covered top of the flea chamber, so that the fleas are able to suck the blood. The blood chamber is heated to 37° C. whereas the flea chamber is kept at room temperature.
After 2 days mortality in % is determined. 100% means all the fleas have been killed; 0% means none of the fleas have been killed.

[11] = system: adult brown dog ticks (Rhipicephalus sanguineus); experiment: Rhipicephalus sanguineus in-vitro contact test with adult brown dog ticks; conditions: 5 μg/cm^2 (=500 g/ha), after 48 hours, read-out: efficacy (ticks dead or moribund)
Protocol: Rhipicephalus sanguineus—In-Vitro Contact Tests with Adult Brown Dog Ticks
as §7
After the solvent has evaporated, each test tube is filled with 5-10 adult brown dog ticks (Rhipicephalus sanguineus), closed with a perforated lid and incubated in a lying position at room temperature and relative humidity. After 48 hours efficacy is determined. The ticks are patted on the ground of the tubes and are incubated on a heating plate at 45-50° C. for at most 5 minutes. Immotile or uncoordinated moving ticks, which are not able to escape the heat by climbing upwards, are marked as dead or moribund.
An efficacy of 100% means all ticks are dead or moribund; 0% means no ticks are dead or moribund.

[12] = system: Blattella germanica strain PAULINIA; experiment: Blattella germanica test (BLTTGE surface treatment & contact assay); conditions: surface concentration 20 mg/m^2, 30 minutes exposure, 24 hours after contact, read-out: efficacy (mortality)
Protocol: Blattella germanica Test (BLTTGE Surface Treatment & Contact Assay)
as §5
as §6, with “animals” for “mosquitoes”, “Blattella germanica” for “Aedes aegypti”, “PAULINIA” for “MONHEIM”

[13] = system: adult cat fleas (Ctenocephalides felis); experiment: Ctenocephalides felis in-vitro contact test, adult cat flea; conditions: after 48 hours, read-out: efficacy (fleas dead or moribund)
Protocol: as §7, with “Ctenocephalides felis—In-Vitro Contact Tests Adult Cat Flea 9 mg” for “9 mg”
After the solvent has evaporated, each test tube is filled with 5-10 adult cat fleas (Ctenocephalidesfelis), closed with a perforated lid and incubated in a lying position at room temperature and relative humidity.
After 48 hours efficacy is determined. The fleas are patted on the ground of the tubes and are incubated on a heating plate at 45-50° C. for at most 5 minutes. Immotile or uncoordinated moving fleas, which are not able to escape the heat by climbing upwards, are marked as dead or moribund.
An efficacy of 100% means all fleas are dead or moribund; 0% means no fleas are dead or moribund.

[14] = system: larvae of the southern green stink bug (Nezara viridula); experiment: Nezara viridula spray test; conditions: 96 h, after 4 days, barley plants
Protocol: Nezara viridula—Spray Test
Solvent: 78.0 parts by weight of acetone • • 1.5 parts by weight of dimethylformamide
as §1, §2
Barley plants (Hordeum vulgare) infested with larvae of the southern green stink bug (Nezara viridula) are sprayed with a test solution containing the desired concentration of the active ingredient.
After 4 days mortality in % is determined. 100% means all the stink bugs have been killed; 0% means none of the stink bugs have been killed.

Row | Compound | pest or weed control at 32 µg/disc, 100 g/ha [1] [%] | mortality at 4 ppm [2] [%] | mortality at 100 g/ha [3] [%] | mortality at 100 g/ha [4] [%] | mortality at 4 mg/m2 ([5]; surface concentration 4 mg/m^2, 30 minutes exposure) [%] | mortality at 20 mg/m2 [5] [%] | mortality at 20 mg/m2 [6] [%] | mortality at 4 mg/m2 [7] [%] | mortality at 20 mg/m2 [7] [%] | pest or weed control at 5 µg/cm2 [8] [%] | pest or weed control at 0.004 mg [9] [%] | pest or weed control at 0.02 mg [9] [%] | mortality at 100 ppm [10] [%] | pest or weed control at 5 µg/cm2, 500 g/ha [11] [%] | mortality at 20 mg/m2 [12] [%] | pest or weed control at 1 µg/cm2, 100 g/ha ([13]; 1 μg/cm^2 (=100 g/ha)) [%] | pest or weed control at 5 µg/cm2, 500 g/ha ([13]; 5 μg/cm^2 (=500 g/ha)) [%] | mortality at 100 g/ha [14] [%]
1 | CC(NC(=O)c1cc(Cl)cc(OC(F)(F)F)c1)c1nc(Cl)nn1-c1ncccn1 (racemic) [Example I-001, 3-chloro-N-[1-(5-chloro-2-pyrimidin-2-yl-1,2,4-triazol-3-yl)ethyl]-5-(trifluoromethoxy)benzamide] | 100 | 100 | 90 | 100 | 80 to 100 | 80 to 100 | 80 to 100 | 80 to 100 | 80 to 100 |  |  |  |  |  |  |  |  | 
2 | CC(NC(=O)c1cc(Cl)cc(C(F)(F)F)c1)c1nc(Br)nn1-c1ccc(Cl)cn1 (racemic) [Example I-018, N-[1-[5-bromo-2-(5-chloro-2-pyridyl)-1,2,4-triazol-3-yl]ethyl]-3-chloro-5-(trifluoromethyl)benzamide] | 100 |  |  | 83 |  | 80 to 100 | 80 to 100 |  |  | 80 | 80 | 100 |  |  |  |  |  | 
3 | CC(NC(=O)c1cc(Br)cc(C(F)(F)F)c1)c1nc(Cl)nn1-c1ncccn1 (stereo not shown) [Example I-003] | 100 | 100 |  | 100 |  | 80 to 100 |  | 80 to 100 | 80 to 100 | 100 | 100 | 100 | 100 | 100 | 80 to 100 |  |  | 
4 | CC(NC(=O)c1cc(Cl)cc(C(F)(F)F)c1)c1nc(Br)nn1-c1ncccn1 (stereo not shown) [Example I-016] | 100 | 100 |  | 100 |  | 80 to 100 | 80 to 100 |  |  | 80 | 100 |  | 100 |  | 80 to 100 |  |  | 
5 | CC(NC(=O)c1cc(Cl)nc(C(F)(F)F)c1)c1nc(I)nn1-c1ncccn1 (stereo not shown) [Example I-024] | 100 |  |  |  |  |  |  |  |  | 100 |  |  |  | 80 |  | 80 | 90 | 100
